ChEMBL document CHEMBL6078687 (J Med Chem, 2024)

System: Influenza A virus
Assay: Antiviral activity against oseltamivir-resistant Influenza A virus A/H1N1/pdm09 infected in MDCK cells assessed as inhibition of plaque formation measured after 2 days
Details: 48 h

Row | SMILES | EC50
1 | CCC(CC)O[C@@H]1C=C(C(=O)O)C[C@H](NCc2ccc(OCc3cccc(B(O)O)c3)cc2C)[C@H]1NC(C)=O | 30 nM
2 | CCC(CC)O[C@@H]1C=C(C(=O)O)C[C@H](NCc2ccc(OCc3ccc(B(O)O)cc3)cc2C)[C@H]1NC(C)=O | 40 nM
3 | CCC(CC)O[C@@H]1C=C(C(=O)O)C[C@H](NCc2ccc(OCc3cccc(B(O)O)c3)cc2F)[C@H]1NC(C)=O | 170 nM
4 | CCC(CC)O[C@@H]1C=C(C(=O)O)C[C@H](NCc2ccc(OCc3ccc(B(O)O)cc3)cc2Cl)[C@H]1NC(C)=O | 400 nM
5 | CCC(CC)O[C@@H]1C=C(C(=O)O)C[C@H](NCc2ccc(OCc3cccc(B(O)O)c3)cc2Cl)[C@H]1NC(C)=O | 30 nM
6 | CCC(CC)O[C@@H]1C=C(C(=O)O)C[C@H](NCc2c(C)cc(OCc3cccc(B(O)O)c3)cc2C)[C@H]1NC(C)=O | 150 nM
7 | CCC(CC)O[C@@H]1C=C(C(=O)O)C[C@H](N)[C@H]1NC(C)=O [OSELTAMIVIR CARBOXYLATE] | > 20000 nM
8 | CCC(CC)O[C@@H]1C=C(C(=O)O)C[C@H](NCc2ccc(OCc3ccc(B(O)O)cc3)cc2F)[C@H]1NC(C)=O | 580 nM
